Measured values: patent US20080096832A1, “Method for Improving the Pharmacokinetics of an NNRTI” (Boehringer Ingelheim International GmbH, priority 2002, published 2008)
Like-named read-outs stand apart in the source and are kept apart here.

Assays:
[1] = molecular target: CYP3A4 (Homo sapiens, UniProt P08684); assay: Metabolism of the compound of the formula I by the cytochromes P450; assay type: in vitro ADME; details: result in words
[2] = Pharmacokinetic drug-drug interaction of the compound of the formula I and ritonavir in healthy volunteers (single dose, alone and with RTV); assay type: in vivo, human; parameters: CL/F: unit not given here; details: for AUC(0-t) / Cmax / Tmax / half-life / AUC: human, plasma
Procedure: A single-dose, single treatment group was studied to assess the pharmacokinetic drug-drug interaction potential between the protease inhibitors the compound of the formula I and ritonavir. The compound of the formula I was administered as a solution containing 5 or 12.5 mg of the compound of the formula I, with excipients, and ritonavir was administered as the 100-mg marketed product (Norvir) 12 hours preceding and co-administration with the compound of the formula I . Baseline pharmacokinetic data for the compound of the formula I was obtained as single doses up through 100 mg. The co-administered drugs were compared with baseline data. The study was conducted in healthy volunteers Pharmacokinetic analyses were based on the results obtained in these subjects. Pharmacokinetic parameters such as AUC, Cmax, tmax, oral clearance, and terminal half-life were determined using standard noncompartmental techniques.

[3] = 12.5 mg oral single dose alone, mean
[4] = 25 mg oral single dose alone, mean
[5] = 50 mg oral single dose alone, mean
[6] = 75 mg oral single dose alone, mean
[7] = 100 mg oral single dose alone, mean
[8] = oral, 5 mg solution + RTV 100 mg, mean
[9] = oral, 5 mg, 5 mg alone (no RTV), mean
[10] = oral, 12.5 mg solution + RTV 100 mg, mean
[11] = oral, 12.5 mg, 12.5 mg alone (no RTV), mean (Table 1)
[12] = po, 12.5 mg, 12.5 mg oral single dose alone, mean (Table 2)
[13] = po, 25 mg, 25 mg oral single dose alone, mean
[14] = po, 50 mg, 50 mg oral single dose alone, mean
[15] = po, 75 mg, 75 mg oral single dose alone, mean
[16] = po, 100 mg, 100 mg oral single dose alone, mean
[17] = with ritonavir 100 mg versus alone

Chain of CYP3A4 (P08684 whole entry): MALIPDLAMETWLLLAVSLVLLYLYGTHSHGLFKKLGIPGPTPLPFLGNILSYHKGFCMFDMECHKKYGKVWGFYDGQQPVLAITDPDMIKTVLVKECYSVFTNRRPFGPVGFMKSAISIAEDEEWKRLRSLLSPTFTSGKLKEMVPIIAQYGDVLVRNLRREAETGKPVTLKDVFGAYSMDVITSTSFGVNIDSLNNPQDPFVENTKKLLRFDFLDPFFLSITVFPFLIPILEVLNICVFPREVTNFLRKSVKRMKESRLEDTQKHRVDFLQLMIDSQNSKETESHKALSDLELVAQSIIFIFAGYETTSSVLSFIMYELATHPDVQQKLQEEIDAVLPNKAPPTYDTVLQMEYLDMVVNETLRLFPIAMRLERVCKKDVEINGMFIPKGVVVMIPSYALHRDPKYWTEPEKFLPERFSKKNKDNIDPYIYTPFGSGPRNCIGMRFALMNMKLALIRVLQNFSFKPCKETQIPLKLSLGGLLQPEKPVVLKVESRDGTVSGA

CCN1c2ncc(CCOc3cc[n+]([O-])c4ccccc34)cc2C(=O)N(C)c2cccnc21 [the compound of the formula I, 5,11-Dihydro-11-ethyl-5-methyl-8-{2-{(1-oxido-4-quinolinyl)oxy}ethyl}-6H-dipyrido[3,2-b:2′,3′-e] [1,4]diazepin-6-one]
metabolism by the cytochromes P450, especially the CYP3A4 isoform [1]: surprisingly rapid metabolism
% Renally eliminated as unchanged drug [2, 3]: 0.21%
CL/F [2, 3]: 243495.99
% Renally eliminated as unchanged drug [2, 4]: 0.41%
CL/F [2, 4]: 200752.61
% Renally eliminated as unchanged drug [2, 5]: 0.48%
CL/F [2, 5]: 124815.56
% Renally eliminated as unchanged drug [2, 6]: 0.60%
CL/F [2, 6]: 263277.68
% Renally eliminated as unchanged drug [2, 7]: 0.81%
CL/F [2, 7]: 75634.54
AUC(0-t) ([2]; oral, 5 mg solution + RTV 100 mg (12 h before and co-administered), mean): 578 ng·h/mL
Cmax [2, 8]: 22.8 ng/mL
Tmax [2, 8]: 4 h
half-life ([2]; oral, 5 mg solution + RTV 100 mg, mean, read-out: half-life (converted)): 15.3 h
AUC(0-t) [2, 9]: 13.6 ng·h/mL
Cmax [2, 9]: 3.64 ng/mL
Tmax [2, 9]: 1.5 h
AUC(0-t) ([2]; oral, 12.5 mg solution + RTV 100 mg (12 h before and co-administered), mean): 1700 ng·h/mL
Cmax [2, 10]: 74.1 ng/mL
Tmax [2, 10]: 3.59 h
half-life ([2]; oral, 12.5 mg solution + RTV 100 mg, mean, read-out: half-life (converted)): 15.9 h
AUC(0-t) [2, 11]: 57.1 ng·h/mL
Cmax [2, 11]: 14.8 ng/mL
Tmax [2, 11]: 1 h
half-life ([2]; oral, 12.5 mg, 12.5 mg alone (no RTV), mean (Table 1), read-out: half-life (converted)): 4.1 h
half-life ([2]; oral, co-administration with ritonavir 100 mg, read-out: half-life upon co-administration with ritonavir (converted)): 15 h
half-life ([2]; oral, without ritonavir, single dose range of 1-100 mg, read-out: half-life without ritonavir (converted)): ~2 h
Cmax [2, 12]: 14.8 ng/mL
Tmax [2, 12]: 1 h
half-life ([2]; po, 12.5 mg, 12.5 mg oral single dose alone, mean (Table 2), read-out: Half-life (converted)): 4.1 h
Cmax [2, 13]: 41.6 ng/mL
Tmax [2, 13]: 0.83 h
half-life ([2]; po, 25 mg, 25 mg oral single dose alone, mean, read-out: Half-life (converted)): 3.44 h
Cmax [2, 14]: 164 ng/mL
Tmax [2, 14]: 0.67 h
half-life ([2]; po, 50 mg, 50 mg oral single dose alone, mean, read-out: Half-life (converted)): 2.5 h
Cmax [2, 15]: 348 ng/mL
Tmax [2, 15]: 0.67 h
half-life ([2]; po, 75 mg, 75 mg oral single dose alone, mean, read-out: Half-life (converted)): 2.21 h
Cmax [2, 16]: 937 ng/mL
Tmax [2, 16]: 0.55 h
half-life ([2]; po, 100 mg, 100 mg oral single dose alone, mean, read-out: Half-life (converted)): 1.86 h
AUC ([2]; 12.5 mg oral single dose alone, mean (Table 2)): 63.1 ng·h/mL
AUC [2, 4]: 139 ng·h/mL
AUC [2, 5]: 437 ng·h/mL
AUC [2, 6]: 817 ng·h/mL
AUC [2, 7]: 1390 ng·h/mL
increase of AUC (plasma concentrations as measured by area under the curve) in the presence of ritonavir [2, 17]: ~40 fold
increase of mean Cmax in the presence of ritonavir [2, 17]: 5-6 fold
